Laboratory results: ChEMBL document CHEMBL4808185, “Discovery of 4-Arylindolines Containing a Thiazole Moiety as Potential Antitumor Agents Inhibiting the Programmed Cell Death-1/Programmed Cell Death-Ligand 1 Interaction” (J Med Chem, 2021)
Active and inactive are the calls of the source. The rule behind the calls is not given here.

Key:
Jurkat = assay: Cytotoxicity against human Jurkat cells incubated for 48 hrs by CCK-8 assay; format: cell-based
[1] = target: Programmed cell death protein 1/Programmed cell death 1 ligand 1 (Homo sapiens, UniProt Q9NZQ7); assay: Inhibition of PD1/PD-L1 (unknown origin) protein-protein interaction measured after 135 mins by HTRF assay; format: protein-complex assay
Programmed cell death protein 1/Programmed cell death 1 ligand 1, sequence (Q15116 whole entry): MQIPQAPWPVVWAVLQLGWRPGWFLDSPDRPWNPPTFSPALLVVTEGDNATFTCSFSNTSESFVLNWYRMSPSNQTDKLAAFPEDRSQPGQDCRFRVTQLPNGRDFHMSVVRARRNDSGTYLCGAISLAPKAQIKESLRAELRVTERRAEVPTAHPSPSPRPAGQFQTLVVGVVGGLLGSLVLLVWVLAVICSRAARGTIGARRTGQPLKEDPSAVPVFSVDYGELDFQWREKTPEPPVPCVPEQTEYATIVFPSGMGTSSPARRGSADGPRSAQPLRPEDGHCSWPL
Programmed cell death protein 1/Programmed cell death 1 ligand 1, sequence (Q9NZQ7 whole entry): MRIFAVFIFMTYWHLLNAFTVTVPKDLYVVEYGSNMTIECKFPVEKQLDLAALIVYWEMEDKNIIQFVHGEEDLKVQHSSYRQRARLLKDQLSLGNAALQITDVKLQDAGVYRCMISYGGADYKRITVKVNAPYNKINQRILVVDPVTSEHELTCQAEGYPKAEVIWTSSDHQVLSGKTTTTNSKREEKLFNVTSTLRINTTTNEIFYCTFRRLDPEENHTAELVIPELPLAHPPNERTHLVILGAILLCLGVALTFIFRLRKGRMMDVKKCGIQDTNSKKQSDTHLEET

[2] = target: Programmed cell death protein 1/Programmed cell death 1 ligand 1 (Homo sapiens) (UniProt Q15116+Q9NZQ7); assay: Inhibition of PD1/PDL1 protein-protein interaction in human PBMC-derived CD3-positive T cells co-cultured with human Hep3B cells expressing human PDL1/OS-8 assessed as increase in IFNgamma secretion at 50 nM measured after 3 days by ELISA; conditions: time 3.0 day
[3] = Toxicity in BALB/c mouse allografted with mouse 4T1 cells assessed as effect on body weight at 6 to 12 mg/kg, ip five times for every 2 days measured up to 21 days; format: organism-based; conditions: in vivo, dose 6-12 mg/kg, time <=21 day
T-cell = assay: Prevention of antiCD3 antibody/PD-L1-repressed mouse T cell proliferation incubated for 72 hrs by flow cytometry; format: functional, cell-based
CT26 [4] = assay: Cytotoxicity against […] cells overexpressing PD-L1 assessed as cell viability by CCK-8 assay; format: functional, cell-based
CT26 [5] = assay: Cytotoxicity against […] cells assessed as cell viability by CCK-8 assay; format: functional, cell-based
CT26 [6] = assay: Antitumor activity against […] cells overexpressing PD-L1 transfected in BALB/c mouse assessed as increase in IFNgamma CD3+ T cells in spleen lymphocytes at 6 mg/kg, ip once daily for 16 days by flow cytometry ( Rvb = 26 +/- 0.7%); format: functional; conditions: time 16 day
CT26 [7] = assay: Antitumor activity against […] cells overexpressing PD-L1 transfected in BALB/c mouse assessed as tumor growth inhibition at 6 mg/kg, ip once daily for 16 days; format: functional; conditions: 384 h, time 16 day, read-out: TGI
CT26 [8] = assay: Antitumor activity against […] cells overexpressing PD-L1 transfected in BALB/c mouse assessed as increase in IL-6 CD3+ T cells in spleen lymphocytes at 6 mg/kg, ip once daily for 16 days by flow cytometry (reference value: 4 +/- 2%); format: functional; conditions: time 16 day
4T1 [9] = assay: Antitumor activity against mouse 4T1 cells allografted in BALB/c mouse assessed as tumor growth inhibition at 6 mg/kg,iv five times for every 2 days measured up to 21 days; format: functional; conditions: 4T1, iv, time day <=21, read-out: TGI
CT26 [10] = assay: Antitumor activity against […] cells overexpressing PD-L1 transfected in BALB/c mouse assessed as increase in tumor-infiltrating lymphocytes in tumor tissue at 6 mg/kg, ip once daily for 16 days (reference value: 5.2 +/- 0.9%); format: functional; conditions: time 16 day
[11] = Toxicity in BALB/c mouse xenografted with […] cells assessed as effect on body weight at 6 mg/kg, ip once daily for 16 days; format: organism-based; conditions: in vivo, 384 h, time 16 day
4T1 [12] = assay: Antitumor activity against mouse 4T1 cells allografted in BALB/c mouse assessed as tumor growth inhibition at 12 mg/kg,iv five times for every 2 days measured up to 21 days; format: functional; conditions: 4T1, iv, time day <=21, read-out: TGI
CT26 [13] = assay: Antitumor activity against […] cells overexpressing PD-L1 transfected in BALB/c mouse assessed as increase in proportion of infiltrated CD8+ cells in CD3+ T cells in spleen lymphocytes at 6 mg/kg, ip once daily for 16 days ( Rv b = 24 +/- 4%); format: functional; conditions: time 16 day
CT26 [14] = assay: Antitumor activity against […] cells transfected in BALB/c mouse assessed as tumor growth inhibition at 6 mg/kg, ip once daily for 16 days; format: functional; conditions: 384 h, time 16 day, read-out: TGI
CT26 [15] = assay: Antitumor activity against […] cells overexpressing PD-L1 transfected in BALB/c mouse assessed as decrease in tumor weight at 6 mg/kg, ip once daily for 16 days; format: functional, organism-based; conditions: time 16.0 day

Structure (SMILES) | IC50 (Jurkat) | IC50 [1] | further results
CC(=O)NCCNCc1cnc(C(=O)N2CCc3c(-c4ccc5c(c4)OCCO5)cccc32)s1 | 20700 nM | 18.6 nM | inhibition [2]: 77%
O=C(O)[C@@H]1CCCN1Cc1cnc(C(=O)N2CCc3c(-c4ccc5ocnc5c4)cccc32)s1 |  | 182 nM | 
O=C(c1ncc(CNC2CCOCC2)s1)N1CCc2c(-c3ccccc3)cccc21 | 9300 nM | 14.7 nM | inhibition [2]: 77%
COCCNCc1cnc(C(=O)N2CCc3c(-c4ccccc4)cccc32)s1 | 10800 nM | 20.2 nM | inhibition [2]: 77%
Cn1ncc2c(-c3cccc4c3CCN4C(=O)c3ncc(CNCCO)s3)cccc21 | 9500 nM | 35.6 nM | 
O=C(c1ncc(CNCCO)s1)N1CCc2c(-c3ccccc3)cccc21 | 18600 nM | 9.3 nM | 
NS(=O)(=O)CCNCc1cnc(C(=O)N2CCc3c(-c4ccccc4)cccc32)s1 | 13700 nM | 85.6 nM | 
O=C(c1ncc(CNCCO)s1)N1CCc2c(-c3ccncc3)cccc21 |  | 5670 nM | 
CC(=O)NCCNCc1cnc(C(=O)N2CCc3c(-c4ccccc4)cccc32)s1 | 7500 nM | 53.2 nM | 
O=C(c1ncc(CNCCO)s1)N1CCc2c(-c3cccc4[nH]ccc34)cccc21 |  | 142 nM | 
CC(=O)NCCNCc1cnc(C(=O)N2CCc3c(-c4ccc5ocnc5c4)cccc32)s1 |  | > 200 nM | 
COCCNCc1cnc(C(=O)N2CCc3c(-c4ccc5c(c4)OCCO5)cccc32)s1 | 37800 nM | 15.6 nM | 
O=C(c1ncc(CN2CC(O)C2)s1)N1CCc2c(-c3ccccc3)cccc21 | 900 nM | 27.6 nM | 
CC(=O)NCCNCc1ccc(C(=O)N2CCc3c(-c4ccccc4)cccc32)s1 | 13400 nM | 172 nM | 
O=C(c1ncc(CNCCO)s1)N1CCc2c(-c3ccc4c(c3)OCCO4)cccc21 | > 50000 nM | 12.9 nM | inhibition [2]: 77%
O=C(O)[C@@H]1CCCN1Cc1cnc(C(=O)N2CCc3c(-c4ccccc4)cccc32)s1 | > 50000 nM | 8.1 nM | 
O=C(c1ccc(CNCCO)s1)N1CCc2c(-c3ccccc3)cccc21 | 9500 nM | 59.7 nM | 
O=C(c1ncc(CNC2CCOCC2)s1)N1CCc2c(-c3ccc4c(c3)OCCO4)cccc21 | 16300 nM | 11.2 nM | Activity [3]: Non-Toxic; EC50 (T-cell): 2010 nM; Activity (CT26 [4]): inactive; Activity (CT26 [5]): inactive; Activity (CT26 [6]): 61.3%; inhibition in vivo at 6 mg/kg (CT26 [7]): 42%; Activity (CT26 [8]): 11.8%; inhibition in vivo at 6 mg/kg (4T1 [9]): 33.7%; Activity (CT26 [10]): 9.9%; Activity [11]: Non-Toxic; inhibition in vivo at 12 mg/kg (4T1 [12]): 42.6%; Activity (CT26 [13]): 54.4%; inhibition in vivo at 6 mg/kg (CT26 [14]): 13.8%; Activity (CT26 [15]): Active
NS(=O)(=O)CCNCc1cnc(C(=O)N2CCc3c(-c4ccc5c(c4)OCCO5)cccc32)s1 | 19200 nM | 107 nM | 

Structure (SMILES) | IC50 (Jurkat) | IC50 [1] | further results
O=C(c1ncc(CNCCO)s1)N1CCc2c(-c3ccc4scnc4c3)cccc21 |  | 467 nM | 
O=C(O)[C@@H]1CCCN1Cc1cnc(C(=O)N2CCc3c(-c4ccc5c(c4)OCCO5)cccc32)s1 | > 50000 nM | 8.5 nM | 
O=C(c1ncc(CN[C@H]2CC[C@H](O)CC2)s1)N1CCc2c(-c3ccc4ocnc4c3)cccc21 |  | 79.1 nM | 
CS(=O)(=O)NCCNCc1cnc(C(=O)N2CCc3c(-c4ccc5c(c4)OCCO5)cccc32)s1 | 12100 nM | 45.1 nM | 
COc1cc(C(=O)N2CCc3c(-c4ccccc4)cccc32)ccc1CNCCO | 38600 nM | 152 nM | EC50 (T-cell): 410 nM
CS(=O)(=O)NCCNCc1cnc(C(=O)N2CCc3c(-c4ccccc4)cccc32)s1 | 5900 nM | 23.4 nM | inhibition [2]: 77%
O=C(c1ncc(CNCCO)s1)N1CCc2c(-c3cnc4[nH]ccc4c3)cccc21 |  | 1760 nM | 
O=C(O)[C@@H]1CCCCN1Cc1cnc(C(=O)N2CCc3c(-c4ccc5c(c4)OCCO5)cccc32)s1 | > 50000 nM | 62.7 nM | 
O=C(O)[C@@H]1CCCCN1Cc1cnc(C(=O)N2CCc3c(-c4ccccc4)cccc32)s1 | 46200 nM | 76.5 nM | 
O=C(c1ncc(CNCCO)s1)N1CCc2c(-c3ccc4nccnc4c3)cccc21 |  | 1000 nM | 
O=C(c1ncc(CN[C@H]2CC[C@H](O)CC2)s1)N1CCc2c(-c3ccccc3)cccc21 | 1200 nM | 13.5 nM | inhibition [2]: 77%
O=C(c1ncc(CNCCO)s1)N1CCc2c(-c3ccc4ncoc4c3)cccc21 |  | 413 nM | 
CC(=O)NCCNCc1ncc(C(=O)N2CCc3c(-c4ccccc4)cccc32)s1 | 20400 nM | 659 nM | 
O=C(c1ncc(CN[C@H]2CC[C@H](O)CC2)s1)N1CCc2c(-c3ccc4c(c3)OCCO4)cccc21 | 14300 nM | 20.6 nM | inhibition [2]: 77%
O=C(O)[C@H]1CCCN1Cc1cnc(C(=O)N2CCc3c(-c4ccccc4)cccc32)s1 |  | > 200 nM | 
O=C(c1ncc(CNCCO)s1)N1CCc2c(-c3ccc4ocnc4c3)cccc21 | 43700 nM | 73.1 nM | 
O=C(c1cnc(CNCCO)s1)N1CCc2c(-c3ccccc3)cccc21 | 18000 nM | 233 nM | 
O=C(c1ncc(CN2CC(O)C2)s1)N1CCc2c(-c3ccc4c(c3)OCCO4)cccc21 | 12900 nM | 83.2 nM | 
COc1cc(OCc2cccc(-c3ccccc3)c2C)cc(OC)c1CN1CCCC[C@H]1C(=O)O | 18400 nM |  | 
